For one compound, inhibition results are on record in ChEMBL document CHEMBL1156572, “Synthesis, stereochemical identification, and selective inhibitory activity against human monoamine oxidase-B of 2-methylcyclohexylidene-(4-arylthiazol-2-yl)hydrazones” (J Med Chem, 2008).

The target in assay [1] is T1, Amine oxidase [flavin-containing] A (Homo sapiens, UniProt P21397).
T1 sequence (P21397 whole entry): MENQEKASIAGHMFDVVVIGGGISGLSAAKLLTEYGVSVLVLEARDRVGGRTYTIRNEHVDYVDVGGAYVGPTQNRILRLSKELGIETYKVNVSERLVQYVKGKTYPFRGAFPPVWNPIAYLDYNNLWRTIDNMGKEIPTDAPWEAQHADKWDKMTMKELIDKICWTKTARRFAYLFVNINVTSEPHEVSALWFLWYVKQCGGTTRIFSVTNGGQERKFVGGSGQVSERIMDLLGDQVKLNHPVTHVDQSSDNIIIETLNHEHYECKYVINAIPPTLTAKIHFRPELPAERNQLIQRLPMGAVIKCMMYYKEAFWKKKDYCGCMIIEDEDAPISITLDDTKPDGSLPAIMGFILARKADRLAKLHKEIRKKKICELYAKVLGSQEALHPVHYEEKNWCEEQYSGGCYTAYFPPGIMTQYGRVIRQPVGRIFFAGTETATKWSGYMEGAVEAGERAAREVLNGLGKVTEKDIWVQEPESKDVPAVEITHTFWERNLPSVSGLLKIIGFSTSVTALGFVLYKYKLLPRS
As to conditions: read-out: INH.
Description: Inhibition of human recombinant MAOA after washing at 500 uM by centrifugation-ultrafiltration method

Assay [2] addresses T1, Amine oxidase [flavin-containing] A. The note with it: read-out: INH. The source holds these as a separate data set.
Description: Inhibition of human recombinant MAOA before repeated washing at 500 uM

With `O=C(NCCN1CCOCC1)c1ccc(Cl)cc1` [MOCLOBEMIDE], the inhibition at 500 µM in assay [1] is 10.3%; in assay [2] it was 86.8%.
